Test results from patent US20040082665A1, “Method for treating stress or tension” (priority 2001, published 2004).

What was measured:
patients [1] = experiment: Randomised placebo-controlled double-blind parallel group 8-week study of tension; format: in vivo; conditions: after 8 weeks of treatment; for patients with tension scale number at least 4: placebo 48% at baseline, 12% after 8 weeks; for patients with moderate/severe or very severe other tension: present in all patients at baseline, placebo 43%; for patients with moderate/severe or very severe muscular tension: placebo 82% at baseline, 38% after 8 weeks
Text: The efficacy and safety of deramciclane was studied in the treatment of tension as compared to placebo. A randomised plasebo-controlled double-blind parallel group 8-week study design was used.
Patients were asked if they had muscular tension (twitchings, stiffness, myoclonic jerks, grinding of teeth, unsteady voice or increased muscular tone) or other tension (feelings of tension, fatigability, startle response, moving to tears easily, trembling, feelings of restlessness or inability to relax). This tension was related to be not present, mild, moderate, severe or very severe.
In addition, patients' tension was also rated with the tension scale 1-6:
2—occasional feelings of edginess and ill defined discomfort
4—continuous feelings of inner tension
6—unrelated dread or anguish

patients [2] = experiment: Randomised placebo-controlled double-blind study; ability to tolerate stress by Visual Analogue Scale (VAS); format: in vivo; conditions: tablet
Method: The effects of deramciclane were studied in a randomised placebo-controlled double-blind study. The subjects were randomly assigned to four parallel groups to receive one tablet twice daily (b.i.d) of a placebo, 5 mg (=10 mg/day), 15 mg (=30 mg/day), or 30 mg (=60 mg/day) deramciclane.
The efficacy of deramciclane on the ability to tolerate stress was analysed by the Visual Analogue Scale (VAS).

Compound: CN(C)CCO[C@]1(c2ccccc2)C[C@H]2CC[C@]1(C)C2(C)C [deramciclane, (1R,2S,4R)-(−)-2-phenyl 2-(dimethylaminoethoxy)-1,7,7-trimethyl-bicyclo[2.2.1]heptane]
- patients with tension scale number at least 4 (patients [1]; 15 mg bid deramciclane, baseline 35%): 5%
- patients with moderate/severe or very severe other tension (patients [1]; 15 mg bid deramciclane): 25%
- patients with moderate/severe or very severe muscular tension (patients [1]; 15 mg deramciclane bid, baseline 61%): 18%
- patients with tension scale number at least 4 (patients [1]; 30 mg bid deramciclane, baseline 47%): 11%
- patients with moderate/severe or very severe other tension (patients [1]; 30 mg bid deramciclane): 24%
- patients with moderate/severe or very severe muscular tension (patients [1]; baseline 68%): 15%
- ability to tolerate stress better than in patients receiving placebo (VAS) (patients [2]; deramciclane 5 mg b.i.d (=10 mg/day)): 29%
- ability to tolerate stress better than in patients receiving placebo (VAS) (patients [2]; deramciclane 15 mg b.i.d (=30 mg/day)): 54%
- ability to tolerate stress better than in patients receiving placebo (VAS) (patients [2]; deramciclane 30 mg b.i.d. (=60 mg/day)): 43%
